Reference: the CheMixHub viscosity set

Assay: xn = mol fraction of the nth substance listed

COCCOCCOC + CCCO
viscosity [mPa·s]
Conditions	298.15 K	308.15 K	318.15 K
101 kPa, x1 = 0.0121	1.856	1.451	–
101 kPa, x1 = 0.0768	1.559	1.243	–
101 kPa, x1 = 0.1011	1.451	1.173	0.956
101 kPa, x1 = 0.1288	1.399	1.144	–
101 kPa, x1 = 0.1895	1.272	1.052	–
101 kPa, x1 = 0.1997	1.243	1.021	0.847
101 kPa, x1 = 0.2359	1.213	1.004	–
101 kPa, x1 = 0.2801	1.183	0.971	–
101 kPa, x1 = 0.3029	1.115	0.927	0.779
101 kPa, x1 = 0.3162	1.133	0.951	–
101 kPa, x1 = 0.3322	1.12	0.939	–
101 kPa, x1 = 0.3923	1.08	0.918	–
101 kPa, x1 = 0.4025	1.046	0.878	0.743
101 kPa, x1 = 0.4477	1.051	0.899	–
101 kPa, x1 = 0.4978	1.032	0.886	–
101 kPa, x1 = 0.5004	1.01	0.852	0.729
101 kPa, x1 = 0.5784	1.011	0.871	–
101 kPa, x1 = 0.5992	0.988	0.838	0.717
101 kPa, x1 = 0.6325	1.003	0.854	–
101 kPa, x1 = 0.6934	0.975	0.828	0.709
101 kPa, x1 = 0.7544	0.991	0.86	–
101 kPa, x1 = 0.8004	0.971	0.825	0.709
101 kPa, x1 = 0.813	0.991	0.862	–
101 kPa, x1 = 0.8974	0.981	0.836	–
101 kPa, x1 = 0.9026	0.993	0.863	–
101 kPa, x1 = 0.9638	0.996	0.867	–
101 kPa, x2 = 0.0194	0.996	0.867	–
101.33 kPa, x1 = 0.0064	1.913	–	–
101.33 kPa, x1 = 0.0122	1.881	–	–
101.33 kPa, x1 = 0.0238	1.816	–	–
101.33 kPa, x1 = 0.0358	1.756	–	–
101.33 kPa, x1 = 0.0546	1.671	–	–
101.33 kPa, x1 = 0.0803	1.567	–	–
101.33 kPa, x1 = 0.1176	1.443	–	–
101.33 kPa, x1 = 0.1632	1.333	–	–
101.33 kPa, x1 = 0.2064	1.251	–	–
101.33 kPa, x1 = 0.2619	1.177	–	–
101.33 kPa, x1 = 0.2976	1.14	–	–
101.33 kPa, x1 = 0.3254	1.119	–	–
101.33 kPa, x1 = 0.3716	1.086	–	–
101.33 kPa, x1 = 0.4168	1.065	–	–
101.33 kPa, x1 = 0.4652	1.038	–	–
101.33 kPa, x1 = 0.5109	1.024	–	–
101.33 kPa, x1 = 0.5509	1.009	–	–
101.33 kPa, x1 = 0.5982	0.994	–	–
101.33 kPa, x1 = 0.6569	0.984	–	–
101.33 kPa, x1 = 0.711	0.976	–	–
101.33 kPa, x1 = 0.7757	0.975	–	–
101.33 kPa, x1 = 0.819	0.976	–	–
101.33 kPa, x1 = 0.8649	0.977	–	–
101.33 kPa, x1 = 0.9094	0.984	–	–
101.33 kPa, x1 = 0.9425	0.989	–	–
101.33 kPa, x1 = 0.9722	0.988	–	–

NCCCN + O
viscosity [mPa·s]
Conditions	303.15 K	308.15 K	313.15 K	318.15 K	323.15 K
101 kPa, x1 = 0.05	1.58	1.38	1.227	1.097	–
101 kPa, x1 = 0.0966	2.754	2.355	2.03	–	–
101 kPa, x1 = 0.1458	4.36	3.619	3.031	–	–
101 kPa, x1 = 0.199	6.289	5.088	4.188	–	–
101 kPa, x1 = 0.2473	7.568	6.055	4.93	–	–
101 kPa, x1 = 0.2961	8.219	6.535	5.313	–	–
101 kPa, x1 = 0.3465	7.991	6.401	5.22	–	–
101 kPa, x1 = 0.3974	7.438	6.022	4.946	–	–
101 kPa, x1 = 0.4955	5.878	4.832	4.038	–	–
101 kPa, x1 = 0.5995	4.307	3.644	3.127	–	–
101 kPa, x1 = 0.6969	3.224	2.779	2.419	–	–
101 kPa, x1 = 0.8006	2.501	2.177	1.921	–	–
101 kPa, x1 = 0.8936	1.997	1.762	1.573	–	–
101.33 kPa, x1 = 0.0518	1.637	1.437	1.267	1.127	1.008
101.33 kPa, x1 = 0.1	2.991	2.534	2.174	1.887	1.65
101.33 kPa, x1 = 0.1498	4.882	4.012	3.345	2.827	2.417
101.33 kPa, x1 = 0.2004	6.762	5.446	4.467	3.714	3.132
101.33 kPa, x1 = 0.2498	7.872	6.309	5.128	4.236	3.548
101.33 kPa, x1 = 0.2734	8.088	6.473	5.268	4.351	3.646
101.33 kPa, x1 = 0.2984	8.108	6.502	5.297	4.379	3.662
101.33 kPa, x1 = 0.3248	7.918	6.364	5.199	4.307	3.619
101.33 kPa, x1 = 0.3502	7.614	6.155	5.027	4.189	3.518
101.33 kPa, x1 = 0.3766	7.121	5.774	4.754	3.972	3.354
101.33 kPa, x1 = 0.4041	6.681	5.464	4.509	3.787	3.211
101.33 kPa, x1 = 0.4467	5.911	4.871	4.068	3.445	2.935

NCCCN + OCCOCCOCCO
viscosity [mPa·s], 100 kPa
Conditions	293.15 K	298.15 K	303.15 K	308.15 K	313.15 K	318.15 K
x2 = 0.0253	2.31	2.01	–	1.64	1.46	1.23
x2 = 0.052	2.82	2.42	2.1	1.9	1.74	1.45
x2 = 0.0801	3.56	3.07	2.62	2.28	2.06	1.69
x2 = 0.1098	4.41	3.74	3.15	2.72	2.47	2.02
x2 = 0.1412	5.52	4.68	3.91	3.33	3	2.43
x2 = 0.1746	7.09	5.97	4.92	4.16	3.72	2.99
x2 = 0.21	8.97	7.46	6.09	5.1	4.54	3.69
x2 = 0.2476	11.9	9.77	7.87	6.52	5.7	4.51
x2 = 0.2877	15.8	12.8	10.1	8.27	7.16	5.6
x2 = 0.3305	21.6	17.1	13.3	10.7	9.13	7.02
x2 = 0.3762	29.3	22.8	17.5	13.8	11.6	8.8
x2 = 0.4254	38.8	29.7	22.5	17.5	14.6	11
x2 = 0.4782	50.2	37.8	28.3	21.7	17.9	13.3
x2 = 0.5352	59.8	44.5	33.2	25.5	20.8	15.2
x2 = 0.5969	70.2	52.2	38.6	29.2	23.7	17.3
x2 = 0.6638	72.7	54.6	40.6	30.9	25.2	18.5
x2 = 0.7366	72.1	54.3	40.7	31.2	25.7	19.1
x2 = 0.8162	66.3	50.6	38.4	29.7	24.7	18.6
x2 = 0.9036	57.9	44.7	34.3	26.8	22.5	17.2
